# Assay results published in US20190106498A1, “TREATMENT FOR ACUTE MYELOID LEUKEMIA” (priority 2017, published 2019).
# Legend:
# [1] = system: AML; settings: aza alone; cited from earlier work
# [2] = system: LSCs; assay: CD70 expression on LSCs of AML patients treated with HMA; assay type: in vivo, human; settings: newly diagnosed AML patients after HMA treatment
# Method: (FIG. 2A) Representative FACS plots of CD70 expression on lin-CD90+CD34+CD38− AML stem/progenitor cells after culture in the presence or absence of 0.5 mM decitabine (D) or vehicle (Veh). Isotype: grey; CD70: black. (FIG. 2B) Cell Viability. (FIG. 2C) Fold change ΔMFI CD70 and (FIG. 2D) mRNA CD70 expression (AML: n=9-15; healthy: n=3). (FIG. 2E) Representative FACS plot and (FIG. 2F) fold change ΔMFI CD70 on stem/progenitor cells in the peripheral blood of AML patients at diagnosis and after 1 cycle of decitabine or azacitidine treatment (D(5), 20 mg/kg, daily for 5 days; A(7), 75 mg/m^2, daily for 7 days).
smiles,measurement,setting,value
Nc1ncn([C@@H]2O[C@H](CO)[C@@H](O)[C@H]2O)c(=O)n1 [azacitidine],response rate,[1],approximately 25%
same,CD70 expression on LSCs compared to level at diagnosis,[2],increase in CD70 expression
